# Patent publication US9695155B2, “Herbicidal substituted pyrimidinyloxy benzene compounds” (E. I. DU PONT DE NEMOURS AND COMPANY, priority 2013, dated 2017)
# Tests used:
# corn [1] = assay: Test C postemergence; assay type: in vivo, Zea mays; details: for Corn plant response rating: 31 g ai/ha; for Corn plant response rating / Plant response rating, Corn: scale 0 to 100 (0 no effect, 100 complete control)
# How it was run: (§1)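 Rated visually on 0–100 (100 = complete control) after 13–15 days under glass. Treatments went onto freshly seeded loam/sand soil or onto emerged plants at the 1- to 4-leaf stage, using a surfactant-containing solvent formulation.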
# large (Lg) crabgrass [2] = assay: Test C preemergence; assay type: in vivo, Digitaria sanguinalis; details: for Crabgrass, Large plant response rating: preemergence; for Plant response rating, Crabgrass, Large: Preemergence, 62 g ai/ha, scale 0 to 100, 0 no effect, 100 complete control
# How it was run: as §1
# pigweed = assay: Test C preemergence; assay type: in vivo, Amaranthus retroflexus; details: for Pigweed plant response rating: preemergence; for Plant response rating, Pigweed: Preemergence, 62 g ai/ha, scale 0 to 100, 0 no effect, 100 complete control
# How it was run: as §1
# sedge, umbrella = assay: Test B flooded paddy test; assay type: in vivo, Cyperus difformis; details: Flood, 250 g ai/ha; 0 to 100 scale where 0 is no effect and 100 is complete control
# How it was run: (§2)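 Post-emergence paddy-water application at the 2-leaf stage, with 3 cm flood kept for the whole test. Response was judged visually relative to controls after 13 to 15 greenhouse days, 0 indicating no effect and 100 complete control.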
# giant foxtail = assay: Test C postemergence; assay type: in vivo, Setaria faberii; details: for Foxtail, Giant plant response rating: 31 g ai/ha; for Foxtail, Giant plant response rating / Plant response rating, Foxtail, Giant: scale 0 to 100 (0 no effect, 100 complete control)
# How it was run: as §1
# barnyardgrass [3] = assay: Test C postemergence; assay type: in vivo, Echinochloa crus-galli; details: for Barnyardgrass plant response rating: 31 g ai/ha, 13 to 15 days; for Barnyardgrass plant response rating / Plant response rating, Barnyardgrass: scale 0 to 100 (0 no effect, 100 complete control)
# How it was run: as §1
# corn [4] = assay: Test A preemergence; assay type: in vivo, Zea mays; details: for Corn plant response rating (0 to 100 scale): 125 g ai/ha; for Corn plant response rating: 500 g ai/ha, 0 to 100 scale where 0 is no effect and 100 is complete control
# How it was run: (§3)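 Greenhouse pot test, loam/sand soil. Formulation: non-phytotoxic solvent mix plus surfactant. Pre: directed spray onto soil after sowing. Post: plants at 1–2 leaf, 2–10 cm. Rated visually vs untreated controls at ~10 d, 0 (no effect) to 100 (complete control).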
# lambsquarters = assay: Test C postemergence; assay type: in vivo, Chenopodium album; details: for Lambsquarters plant response rating: 31 g ai/ha; for Lambsquarters plant response rating / Plant response rating, Lambsquarters: scale 0 to 100 (0 no effect, 100 complete control)
# How it was run: as §1
# waterhemp = assay: Test C postemergence; assay type: in vivo, Amaranthus rudis; details: for Waterhemp plant response rating: 31 g ai/ha; for Waterhemp plant response rating / Plant response rating, Waterhemp: scale 0 to 100 (0 no effect, 100 complete control)
# How it was run: as §1
# large (Lg) crabgrass [5] = assay: Test C postemergence; assay type: in vivo, Digitaria sanguinalis; details: for Crabgrass, Large plant response rating: 31 g ai/ha; for Crabgrass, Large plant response rating / Plant response rating, Crabgrass, Large: scale 0 to 100 (0 no effect, 100 complete control)
# How it was run: as §1
# chickweed = assay: Test C postemergence; assay type: in vivo, Stellaria media; details: for Chickweed plant response rating: 31 g ai/ha; for Chickweed plant response rating / Plant response rating, Chickweed: scale 0 to 100 (0 no effect, 100 complete control)
# How it was run: as §1
# large (Lg) crabgrass [6] = assay: Test A postemergence; assay type: in vivo, Digitaria sanguinalis; details: 0 to 100 scale where 0 is no effect and 100 is complete control; for Crabgrass, Large plant response rating: 125 g ai/ha; for Plant response rating, Crabgrass, Large: 500 g ai/ha
# How it was run: as §3
# wheat, winter = assay: Test C postemergence; assay type: in vivo, Triticum aestivum; details: for Wheat plant response rating: 31 g ai/ha; for Wheat plant response rating / Plant response rating, Wheat: scale 0 to 100 (0 no effect, 100 complete control)
# How it was run: as §1
# barnyardgrass [7] = assay: Test B flooded paddy test; assay type: in vivo, Echinochloa crus-galli; details: Flood, 250 g ai/ha; 0 to 100 scale where 0 is no effect and 100 is complete control
# How it was run: as §2
# wheat = assay: Test A preemergence; assay type: in vivo, Triticum aestivum; details: for Wheat plant response rating (0 to 100 scale): 125 g ai/ha; for Wheat plant response rating: 500 g ai/ha, 0 to 100 scale where 0 is no effect and 100 is complete control
# How it was run: as §3
# [8] = 16 g ai/ha, postemergence, 0 is no effect, 100 is complete control
# [9] = postemergence, visual rating, 13 to 15 days
# [10] = 125 g ai/ha, postemergence, visual rating
# [11] = Postemergence, 62 g ai/ha, 13 to 15 days
# [12] = 16 g ai/ha, scale 0 to 100 (0 no effect, 100 complete control)
# [13] = 125 g ai/ha, scale 0 (no effect) to 100 (complete control)
# [14] = 250 g ai/ha, scale 0 (no effect) to 100 (complete control)
structure (smiles),measurement,setting,value
N#Cc1cnn(-c2c(Oc3ncc(Cl)cn3)cccc2C(F)F)c1 [Compound 236],"Plant response rating (0 to 100), Corn",corn [1]; [8],5
same,Corn plant response rating,corn [1]; [9],5
same,"Plant response rating, Corn",corn [1]; [10],10
same,"Plant response rating, Corn",corn [1]; [11],5
same,"Crabgrass, Large plant response rating",large (Lg) crabgrass [2]; [12],90
same,"Crabgrass, Large plant response rating",large (Lg) crabgrass [2]; [13],100
same,"Plant response rating, Crabgrass, Large",large (Lg) crabgrass [2],100
same,Pigweed plant response rating,pigweed; [12],100
same,Pigweed plant response rating,pigweed; [13],100
same,"Plant response rating, Pigweed",pigweed,100
same,"Plant response rating, Sedge, Umbrella","sedge, umbrella",100
same,"Plant response rating (0 to 100), Foxtail, Giant",giant foxtail; [8],5
same,"Foxtail, Giant plant response rating",giant foxtail; [9],50
same,"Plant response rating, Foxtail, Giant",giant foxtail; [10],15
same,"Plant response rating, Foxtail, Giant",giant foxtail; [11],15
same,"Plant response rating (0 to 100), Barnyardgrass",barnyardgrass [3]; [8],5
same,Barnyardgrass plant response rating,"barnyardgrass [3]; postemergence, visual rating",5
same,"Plant response rating, Barnyardgrass",barnyardgrass [3]; [10],10
same,"Plant response rating, Barnyardgrass","barnyardgrass [3]; Postemergence, 62 g ai/ha",5
same,Corn plant response rating (0 to 100 scale),corn [4],20
same,Corn plant response rating,corn [4],90
same,"Plant response rating (0 to 100), Lambsquarters",lambsquarters; [8],80
same,Lambsquarters plant response rating,lambsquarters; [9],85
same,"Plant response rating, Lambsquarters",lambsquarters; [10],90
same,"Plant response rating, Lambsquarters",lambsquarters; [11],75
same,"Plant response rating (0 to 100), Waterhemp",waterhemp; [8],70
same,Waterhemp plant response rating,waterhemp; [9],70
same,"Plant response rating, Waterhemp",waterhemp; [10],90
same,"Plant response rating, Waterhemp",waterhemp; [11],90
same,"Plant response rating (0 to 100), Crabgrass, Large",large (Lg) crabgrass [5]; [8],5
same,"Crabgrass, Large plant response rating",large (Lg) crabgrass [5]; [9],5
same,"Plant response rating, Crabgrass, Large",large (Lg) crabgrass [5]; [10],5
same,"Plant response rating, Crabgrass, Large",large (Lg) crabgrass [5]; [11],5
same,"Plant response rating (0 to 100), Chickweed",chickweed; [8],40
same,Chickweed plant response rating,chickweed; [9],50
same,"Plant response rating, Chickweed",chickweed; [10],50
same,"Plant response rating, Chickweed",chickweed; [11],65
same,"Crabgrass, Large plant response rating",large (Lg) crabgrass [6],80
same,"Plant response rating, Crabgrass, Large",large (Lg) crabgrass [6],100
same,"Plant response rating (0 to 100), Wheat","wheat, winter; [8]",0
same,Wheat plant response rating,"wheat, winter; [9]",0
same,"Plant response rating, Wheat","wheat, winter; [10]",0
same,"Plant response rating, Wheat","wheat, winter; [11]",0
same,"Plant response rating, Barnyardgrass",barnyardgrass [7],30
same,Wheat plant response rating (0 to 100 scale),wheat,0
same,Wheat plant response rating,wheat,100
N#Cc1cccc(Oc2ncc(Cl)cn2)c1-n1cc(I)cn1 [Compound 204],Corn plant response rating,corn [1]; [9],10
same,"Plant response rating, Corn",corn [1]; [10],20
same,"Plant response rating (0 to 100), Corn","corn [1]; 250 g ai/ha, postemergence",20
same,"Plant response rating, Corn",corn [1]; [11],20
same,"Crabgrass, Large plant response rating",large (Lg) crabgrass [2]; [13],100
same,"Crabgrass, Large plant response rating",large (Lg) crabgrass [2]; [14],100
same,"Plant response rating, Crabgrass, Large",large (Lg) crabgrass [2],100
same,Pigweed plant response rating,pigweed; [13],98
same,Pigweed plant response rating,pigweed; [14],98
same,"Plant response rating, Pigweed",pigweed,100
same,"Plant response rating, Sedge, Umbrella","sedge, umbrella",90
same,"Foxtail, Giant plant response rating",giant foxtail; [9],5
same,"Plant response rating, Foxtail, Giant",giant foxtail; [10],10
same,"Plant response rating (0 to 100), Foxtail, Giant","giant foxtail; 250 g ai/ha, postemergence",90
same,"Plant response rating, Foxtail, Giant",giant foxtail; [11],5
same,Barnyardgrass plant response rating,"barnyardgrass [3]; postemergence, visual rating",5
same,"Plant response rating, Barnyardgrass",barnyardgrass [3]; [10],5
same,"Plant response rating (0 to 100), Barnyardgrass","barnyardgrass [3]; 250 g ai/ha, postemergence",35
same,"Plant response rating, Barnyardgrass","barnyardgrass [3]; Postemergence, 62 g ai/ha",10
same,Corn plant response rating (0 to 100 scale),corn [4],0
same,Corn plant response rating,corn [4],30
same,Lambsquarters plant response rating,lambsquarters; [9],85
same,"Plant response rating, Lambsquarters",lambsquarters; [10],90
same,"Plant response rating (0 to 100), Lambsquarters","lambsquarters; 250 g ai/ha, postemergence",95
same,"Plant response rating, Lambsquarters",lambsquarters; [11],80
same,Waterhemp plant response rating,waterhemp; [9],85
same,"Plant response rating, Waterhemp",waterhemp; [10],90
same,"Plant response rating (0 to 100), Waterhemp","waterhemp; 250 g ai/ha, postemergence",95
same,"Plant response rating, Waterhemp",waterhemp; [11],90
same,"Crabgrass, Large plant response rating",large (Lg) crabgrass [5]; [9],5
same,"Plant response rating, Crabgrass, Large",large (Lg) crabgrass [5]; [10],15
same,"Plant response rating (0 to 100), Crabgrass, Large","large (Lg) crabgrass [5]; 250 g ai/ha, postemergence",65
same,"Plant response rating, Crabgrass, Large",large (Lg) crabgrass [5]; [11],10
same,Chickweed plant response rating,chickweed; [9],75
same,"Plant response rating, Chickweed",chickweed; [10],98
same,"Plant response rating (0 to 100), Chickweed","chickweed; 250 g ai/ha, postemergence",100
same,"Plant response rating, Chickweed",chickweed; [11],95
same,"Crabgrass, Large plant response rating",large (Lg) crabgrass [6],90
same,"Plant response rating, Crabgrass, Large",large (Lg) crabgrass [6],100
same,Wheat plant response rating,"wheat, winter; [9]",5
same,"Plant response rating, Wheat","wheat, winter; [10]",10
same,"Plant response rating (0 to 100), Wheat","wheat, winter; 250 g ai/ha, postemergence",10
same,"Plant response rating, Wheat","wheat, winter; [11]",5
same,"Plant response rating, Barnyardgrass",barnyardgrass [7],20
same,Wheat plant response rating (0 to 100 scale),wheat,40
same,Wheat plant response rating,wheat,60
